Results as given in patent US20170121344A1 (Siga Technologies, Inc., priority 2009, published 2017).
Where a name gives a salt, the structure may show the parent alone. Read-outs that look alike come from different tables or passages of the source.

Tested on: Dengue-2 (Strain New Guinea C)
Experiment: Viral yield assay against Dengue-2 in Vero cells
Format: cell-based, Dengue virus
Conditions: Dengue virus
Protocol: Compounds that were active in the primary screen were tested for activity in viral yield assays. […] Vero cells in 12-well plates were infected with dengue-2 virus at a multiplicity of infection (MOI) of 0.1, treated with compound (or DMSO as a control), incubated at 37° C., harvested 48 hours post infection and titered on Vero cells as described above. The EC50 was calculated through ExcelFit. Activities against other serotypes of dengue virus were determined in a similar way.

[1] = Vero, 48 h, read-out: Activity (EC50 class) against Dengue-2 Virus in Vero cells
[2] = Vero cells, MOI 0.1, harvested 48 hours post infection, read-out: Activity (EC50 class) against Dengue-2 Virus in Vero cells
[3] = DENV2, viral yield assay, Vero cells, MOI 0.1, 48 hours post infection, read-out: Activity (EC50 in μM) DENV-2

SMILES	EC50 [2]	EC50 [3]	other results
COCc1cc(C)nc2sc(C(=O)NC3CCCCC3)c(N)c12 [Compound 176, 3-Amino-4-methoxymethyl-6-methyl-thieno[2,3-b]pyridine-2-carboxylic acid cyclohexylamide]			EC50 [1]: > 25 µM
Nc1c(C(=O)Nc2nccs2)sc2nc3c(c(-c4ccco4)c12)CCCC3 [Compound 86, 3-Amino-4-furan-2-yl-5,6,7,8-tetrahydro-thieno[2,3-b]quinoline-2-carboxylic acid thiazol-2-ylamide]	5 to 25 µM		
Nc1c(C(=O)Nc2ccccc2C(F)(F)F)sc2nc3c(cc12)CCCCC3 [Compound 372, 3-amino-N-(2-(trifluoromethyl)phenyl)-6,7,8,9-tetrahydro-5H-cyclohepta[b]thieno [3,2-e]pyridine-2-carboxamide]		< 5 µM	
CN1CCc2nc3sc(C(=O)Nc4ccccc4)c(N)c3c(-c3cccs3)c2C1 [Compound 34, 3-Amino-6-methyl-4-thiophen-2-yl-5,6,7,8-tetrahydro-thieno[2,3-b][1,6]naphthyridine-2-carboxylic acid phenylamide]	< 5 µM		
COc1ccc(OC)c(CN2CCN(C(=O)c3sc4nc(C)cc(C)c4c3C)CC2)c1 [Compound 407, [4-[(2,5-dimethoxyphenyl)methyl)piperazin-1-yl]-(3,4,6-trimethylthieno [2,3-b]pyridin-2-yl)methanone]		> 25 µM	
Cc1cc(C)c2c(N)c(C(=O)Nc3cccc(C)c3C)sc2n1 [Compound 181, 3-Amino-4,6-dimethyl-thieno[2,3-b]pyridine-2-carboxylic acid (2,3-dimethyl-phenyl)-amide]			EC50 [1]: > 25 µM
CCOC(=O)c1ccc(NC(=O)c2sc3nc4c(cc3c2N)CN(C(C)C)CC4)cc1 [Compound 25, 4-[(3-Amino-6-isopropyl-5,6,7,8-tetrahydro-thieno[2,3-b][1,6]naphthyridine-2-carbonyl)-amino]-benzoic acid ethyl ester]	< 5 µM		
COc1cccc(-c2ccc3c(N)c(C(=O)Nc4ccc(Cl)cc4Cl)sc3n2)c1 [Compound 545, 3-amino-N-(2,4-dichlorophenyl)-6-(3-methoxyphenyl)thieno[2,3-b]pyridine-2-carboxamide]		< 5 µM	
CCc1nnc(NC(=O)c2sc3nc4c(cc3c2N)CN(C)CC4)s1 [Compound 268, 3-Amino-6-methyl-5,6,7,8-tetrahydro-thieno[2,3-b][1,6]naphthyridine-2-carboxylic acid (5-ethyl-[1,3,4]thiadiazol-2-yl)-amide]	> 25 µM		
CCOc1ccccc1NC(=O)c1sc2nc(-c3ccc(OC)c(OC)c3)ccc2c1N [Compound 509, 3-amino-6-(3,4-dimethoxyphenyl)-N-(2-ethoxyphenyl)thieno[2,3-b]pyridine-2-carboxamide]		< 5 µM	
COc1ccc(-c2ccc3c(N)c(C(=O)Nc4ccc(F)cc4Cl)sc3n2)cc1OC [Compound 539, 3-amino-N-(2-chloro-4-fluoro-phenyl)-6-(3,4-dimethoxyphenyl)thieno[2,3-b] pyridine-2-carboxamide]		< 5 µM	
Cc1c(C(=O)Nc2ccc(F)cc2)sc2ncc(C(=O)Nc3ccc(F)cc3)cc12 [Compound 397, N2,N5-bis(4-fluorophenyl)-3-methyl-thieno[2,3-b]pyridine-2,5-dicarboxamide]		< 5 µM	
CCN(CC)C(=O)c1sc2nc(-c3ccccc3)cc(C(F)(F)F)c2c1N [Compound 196, 3-Amino-6-phenyl-4-trifluoromethyl-thieno[2,3-b]pyridine-2-carboxylic acid diethylamide]	> 25 µM		
Cc1ccc(NC(=S)NNC(=O)c2sc3nc(-c4cccs4)cc(C(F)(F)F)c3c2C)cc1 [Compound 410, 1-[[3-methyl-6-(2-thienyl)-4-(trifluoromethyl)thieno[2,3-b]pyridine-2-carbonyl]amino]-3-(p-tolyl)thiourea]		< 5 µM	
NC(=O)c1sc2nc3c(cc2c1N)CCCCC3 [Compound 82, 3-Amino-6,7,8,9-tetrahydro-5H-1-thia-10-aza-cyclohepta[f]indene-2-carboxylic acid amide]	5 to 25 µM		
Nc1c(C(=O)Nc2cc(C(F)(F)F)ccc2Cl)sc2nc3c(cc12)CCCC3 [Compound 193, 3-Amino-5,6,7,8-tetrahydro-thieno[2,3-b]quinoline-2-carboxylic acid (2-chloro-5-trifluoromethyl-phenyl)-amide]	> 25 µM		
COc1ccc(NC(=O)c2sc3nc(N4CCOCC4)c4c(c3c2N)CC(C)(C)OC4)cc1 [Compound 244, 1-Amino-8,8-dimethyl-5-morpholin-4-yl-8,9-dihydro-6H-7-oxa-3-thia-4-aza-cyclopenta[a]naphthalene-2-carboxylic acid (4-methoxy-phenyl)-amide]			EC50 [1]: > 25 µM
Cc1cc(C)c2c(C)c(C(=O)Nc3ccccc3O)sc2n1 [Compound 403, N-(2-hydroxyphenyl)-3,4,6-trimethyl-thieno[2,3-b]pyridine-2-carboxamide]		< 5 µM	

SMILES	EC50 [2]	EC50 [3]	other results
COc1ccc(-c2cc(-c3cccs3)nc3sc(C(N)=O)c(N)c23)cc1 [Compound 238, 3-Amino-4-(4-methoxy-phenyl)-6-thiophen-2-yl-thieno[2,3-b]pyridine-2-carboxylic acid amide]	> 25 µM		
Nc1c(C(=O)Nc2nccs2)sc2nc3c(cc12)CCCCC3 [Compound 366, 3-amino-N-(thiazol-2-yl)-6,7,8,9-tetrahydro-5H-cyclohepta [b]thieno[3,2-e]pyridine-2-carboxamide]		< 5 µM	
CC(=O)c1ccc(NC(=O)c2sc3nc4c(cc3c2N)CN(C)CC4)cc1 [Compound 43, 3-Amino-6-methyl-5,6,7,8-tetrahydro-thieno[2,3-b][1,6]naphthyridine-2-carboxylic acid (4-acetyl-phenyl)-amide]	< 5 µM		
Nc1c(C(=O)Nc2ccc([N+](=O)[O-])cc2)sc2nc(-c3cccs3)cc(C(F)(F)F)c12 [Compound 221, 3-Amino-6-thiophen-2-yl-4-trifluoromethyl-thieno[2,3-b]pyridine-2-carboxylic acid (4-nitro-phenyl)-amide]	> 25 µM		
CCSc1nc2ccc(NC(=O)c3sc4nc(-c5cccc(OC)c5)ccc4c3N)cc2s1 [Compound 567, 3-amino-N-(2-ethylsulfanyl-1,3-benzo-thiazol-6-yl)-6-(3-methoxphenyl)thieno [2,3-b]pyridine-2-carboxamide]		< 5 µM	
Nc1c(C(=O)Nc2nnc(-c3ccccc3)s2)sc2nc3c(cc12)CCNCC3 [Compound 115, 3-Amino-6,7,8,9-tetrahydro-5H-1-thia-7,10-diaza-cyclohepta[f]indene-2-carboxylic acid (5-phenyl-[1,3,4]thiadiazol-2-yl)-amide hydrochloride]	5 to 25 µM		
COCc1cc(C)nc2sc(C(=O)Nc3ccccc3Cl)c(N)c12 [Compound 185, 3-Amino-4-methoxymethyl-6-methyl-thieno[2,3-b]pyridine-2-carboxylic acid (2-chloro-phenyl)-amide]	> 25 µM		
Cc1ccc(NC(=O)c2sc3nc4c(cc3c2N)CN(C)CC4)cc1Cl [Compound 45, 3-Amino-6-methyl-5,6,7,8-tetrahydro-thieno[2,3-b][1,6]naphthyridine-2-carboxylic acid (3-chloro-4-methyl-phenyl)-amide]	< 5 µM		
Cc1ccc2c(N)c(C(=O)Nc3cccc(C(F)(F)F)c3)sc2n1 [Compound 367, 3-amino-6-methyl-N-(3-(trifluoromethyl)phenyl)thieno[2,3-b] pyridine-2-carboxamide]		< 5 µM	
Cc1cc(C(F)(F)F)c2c(N)c(C(=O)Nc3cccc4ccccc34)sc2n1 [Compound 128, 3-Amino-6-methyl-4-trifluoromethyl-thieno[2,3-b]pyridine-2-carboxylic acid naphthalen-1-ylamide]	> 25 µM		
CN1CCc2nc3sc(C(=O)Nc4ccc(N(C)C)cc4)c(N)c3cc2C1 [Compound 20, 3-Amino-6-methyl-5,6,7,8-tetrahydro-thieno[2,3-b][1,6]naphthyridine-2-carboxylic acid (4-dimethylamino-phenyl)-amide]	< 5 µM		
CC1(C)CC(=O)c2cc3c(N)c(C(=O)Nc4ccccc4[N+](=O)[O-])sc3nc2C1 [Compound 222, 3-Amino-7,7-dimethyl-5-oxo-5,6,7,8-tetrahydro-thieno[2,3-b]quinoline-2-carboxylic acid (2-nitro-phenyl)-amide]	> 25 µM		
N#Cc1cc2c(N)c(C(=O)Nc3ccc(S(N)(=O)=O)cc3)sc2nc1N [Compound 136, 3,6-Diamino-5-cyano-thieno[2,3-b]pyridine-2-carboxylic acid (4-sulfamoyl-phenyl)-amide]	> 25 µM		
N#Cc1cc2c(N)c(C(=O)Nc3ccccc3C(F)(F)F)sc2nc1N [Compound 130, 3,6-Diamino-5-cyano-thieno[2,3-b]pyridine-2-carboxylic acid (2-trifluoromethyl-phenyl)-amide]	> 25 µM		
COCc1cc(C)nc2sc3c(=O)[nH]nnc3c12 [Compound 76, 9-Methoxymethyl-7-methyl-3H-pyrido[3′,2′:4,5]thieno[3,2-d][1,2,3]triazin-4-one]	5 to 25 µM		
CCN(C(=O)c1sc2nc(C)cc(C)c2c1N)c1ccccc1 [Compound 102, 3-Amino-4,6-dimethyl-thieno[2,3-b]pyridine-2-carboxylic acid ethyl-phenyl-amide]	5 to 25 µM		
Cc1cc(NC(=O)c2sc3nc4c(cc3c2N)CN(C)CC4)on1 [Compound 264, 3-Amino-6-methyl-5,6,7,8-tetrahydro-thieno[2,3-b][1,6]naphthyridine-2-carboxylic acid (3-methyl-isoxazol-5-yl)-amide]	> 25 µM		
Cc1ccccc1-n1cnc2c(sc3nc(N4CCOCC4)c4c(c32)CC(C)(C)OC4)c1=O [Compound 100, 2,2-Dimethyl-5-morpholin-4-yl-9-o-tolyl-1,4-dihydro-2H,9H-3-oxa-7-thia-6,9,11-triaza-benzo[c]fluoren-8-one]	5 to 25 µM		
